Test results from patent publication US4617290A, “Synergistine derivatives, their preparation and pharmaceutical compositions containing them” (Rhone-Poulenc Sante, priority 1983, dated 1986).

Assay type: physicochemical
Experimental: The new compounds of the invention have the considerable advantage of being soluble or capable of being solubilized in water, either in the form of parent substances or in the form of salts, at therapeutically useful levels, while at the same time retaining the general spectrum of antibacterial activity of synergistines. They are especially active in vitro against Staphylococcus aureus Smith at concentrations of between 8 and 125 μg/ml. A 10% aqueous solution of 5γ-deoxy-5γ-(3-dimethylaminopropyl)aminopristinamycin IA (product A) in the form of the hydrochloride is obtained with: […]

## 5γ-[N-(carboxymethyl)-methylamino]-5γ-deoxypristinamycin IA [product K]
  concentration of aqueous solution obtained: 2%
